The source of these data is EP1655608A1, “CFTR as a component of an autophagy signaling pathway, applications thereof to autophagic diseases, and determination of cystic fibrosis as an autophagic disease” (priority 2004, dated 2006).

The test system of one data set is Sertoli 42GPA9 cells. Kind of data set: Autophagic vacuolation of Sertoli cells (light, electron and confocal microscopy). The format is cell-based, mouse. The conditions noted are these: for induction of vacuolation / autophagy by the chemical alone: Lindane 50 µM, DDT 1.8 µM, Bϕ 90 µM, PCP 15 µM, SB203580 10 µM, NH4Cl 5 mM; for effect on Lindane-preformed vacuoles: added after vacuole formation; for effect on Lindane-induced vacuolation: pretreatment 90 min before Lindane 50 µM, 3 MA 30 mM, BafA1 100 nM, NPPB 25 µM. How it is done: Autophagy was induced either by starvation or by treatment with Lindane under nutrient-rich condition.
(§1) When bafilomycin A1 (BafA1, V-ATPase-specific inhibitor, 100 nM, Sigma); Park Davis Inhibitor PD98059 (MEK1-specific inhibitor, 10 µM, Cell Signaling), H89 (PKA inhibitor, 5 µM, Calbiochem), 3-Methyladenine (3 MA, autophagy-specific inhibitor, 10-30 mM, Sigma) or NPPB [5-nitro-2-(3-phenylpropylamino) benzoic acid, Cl^- channel blocker, 25 µM, Sigma] was used, it was added to the starvation medium for 90 min, prior to Lindane addition or nutrient deprivation.
The ultrastructural changes caused by Lindane or starvation in Sertoli and renal cells were analysed by transmission electron microscopy, as previously described (57). […] Cell pellets were then rinsed in cacodylate buffer, postfixed in 1% OsO4 for 1 h at 4°C, dehydrated through graded ethanol washes, and embedded in epoxy resin. Oriented […] sections were obtained with diamond knives, and representative areas were chosen for ultra-thin sectioning. […] 30-50 micrographs were taken randomly from each sample at primary magnification × 10,000.
Sertoli cells seeded on glass coverslips were transiently transfected with EGFP-Rab7 or MEK1^+-HA expression plasmids using Fugene 6 reagent (Roche), washed and allowed to recover overnight before addition of Lindane (50 µM). […] To determine the pH of the Lindane-induced vacuoles, living cells were stained with acridine-orange (5 µg/ml, Sigma), a membrane-permeable weak base whose fluorescence shifts from green at neutral pH to red in acidic compartments (59). 10 min later, cells were washed and directly observed under a confocal microscope.

In a further data set the test system is p42^ERK2 and p44^ERK1. Kind of data set: ERK activation by anti-phospho-ERK Western blotting of cell lysates. The format is cell-based, mouse. The conditions noted are these: for ERK activation in Sertoli cells: Lindane 50 µM, DDT 1.8 µM, Bϕ 90 µM, PCP 15 µM; for effect on Lindane-induced ERK activation: pretreatment, PD98059 10 µM, NPPB 25 µM, 90 min. The source says: (§2) After stripping, equal loadings of proteins were verified by reprobing the blots with anti-ERK1 (Santa Cruz Biotechnology).

Another data set concerns the target CFTR Cl^- channels (Homo sapiens, UniProt P13569). The conditions noted are these: NPPB 0.1 mM, glibenclamide 0.1 mM, external DIDS 1 mM; review (41); cited from earlier work.
A further data set has as its system PKA. The data set is described as follows: CREB phosphorylation as readout of PKA activity. Format: cell-based. The conditions noted are these: H89. The text has this:
The emerging issue is therefore how Lindane could activate CFTR Cl^- currents. One possibility would be that Lindane directly activates CFTR, but this appears unlikely because it required minutes instead of seconds to increase Cl^- conductance. […] To further explore this hypothesis, we tested the effect of Lindane on the renal proximal cell line (PCT1). […] Of particular interest, we provide several lines of evidence that the CFTR Δex10 channels remained functional in response to Lindane in PCT cells. […] These finding provide the first evidence that an agonist, e.g. Lindane, could activate CFTR Cl- current independently of PKA, raising the promise for new strategies using Lindane to restore Cl-conductance in cystic fibrosis patients with CFTR variants on PKA sites.

The subject of the next data set is Sertoli cell. The conditions noted are these: reported, ref (84); cited from earlier work.
For the next data set, the system named is CFTR^-/- cells. The data set is described as follows: Starvation-induced autophagic death of CFTR-/- renal cells. Format: cell-based, mouse. The conditions noted are these: nutrient-free medium. The method, then: (§3) For nutrient deprivation, cells were washed with DMEM and first starved in minimal medium lacking serum for 90 min. Cells were then washed again with PBS and deprived for up to 16 h in nutrient-free medium lacking amino acids, vitamins, and serum (HBSS, 0.1% BSA, 20 mM HEPES, Sigma #H8264). As controls, cells were incubated in this nutrient-free medium supplemented with a mixture of non essential amino acids (0.1 mM, GIBCO, #11140-035).

Another data set has as its system CFTR^+/+ cells. The data set is described as follows: Starvation-induced autophagic death of CFTR+/+ renal cells. The conditions noted are these: 16 hours nutrient deprivation. The format is cell-based, mouse. The method, then:
as §3, §1

Another data set deals with CFTR Cl^- channel (Mus musculus, UniProt P26361). The data set is described as follows: Whole-cell patch-clamp Cl- currents in Sertoli cells. Format: cell-based. Set-up: endogenous in cells; host or cells: Sertoli 42GPA9 cell line (mouse). How it is done:
Whole cell currents were monitored from Sertoli cells, CFTR^-/- and WT renal epithelial cells with an RK 400 amplifier (Biologic, Münster, Germany) as previously described (40). The bath (extracellular) solution consisted of 140 mM NMDGCl (N-methyl-D-glucamine chloride), 5 mM D-Glucose, 1 mM CaCl2, and 10 mM HEPES, pH 7.4. Patch pipette (intracellular) solution contained 140 mM NMDGCl, 5 mM D-Glucose, 5 mM EGTA, 5 mM MgATP, and 10 mM HEPES, pH 7.4. Osmolarity of both solutions was adjusted to 280 mOSM by adding mannitol. These solutions were designed to study Cl^- currents because Cl^- is the sole permeant ion in these conditions and to prevent Ca^2+ activated Cl^- currents by the addition of EGTA in the patch solution. After establishment of whole cell configuration, cells were stimulated by the addition of Lindane (50 µM), FSK (10 µM), vehicle (Me2S0 or ethanol) in the absence or the presence of NPPB (0.1mM), DIDS (4,4'-diisothiocyanatostilbene-2,2'-disulfonic acid, 1 mM, Sigma), glibenclamide (0.1mM, Sigma) or PD98059 (10 µM) in the bath solution. The cell membrane potential was clamped at -50mV and 400 ms pulses were applied from -100 to +120 mV with increments of 20 mV every 2 s. To generate whole cell current-voltage (I-V) relationship, membrane currents resulting from voltage stimuli were recorded for at least 3 min and analysed using an IBM-AT-compatible computer equipped with Digidata 1200 interface (Axon Instruments) and pCLAMP software (versions 5.51 and 6.0, Axon Instruments), respectively. Statistics-Results are expressed as mean ± S.E. of n observations using the Student's t test.

The subject of the next data set is p38. The data set is described as follows: p38 / Jun kinase activation by Western blotting of Sertoli cell lysates. Format: cell-based, mouse. The conditions noted are these: Sertoli cell lysates treated for 15 min.
Excerpt: as §2

Sequence of CFTR Cl^- channels (P13569 whole entry): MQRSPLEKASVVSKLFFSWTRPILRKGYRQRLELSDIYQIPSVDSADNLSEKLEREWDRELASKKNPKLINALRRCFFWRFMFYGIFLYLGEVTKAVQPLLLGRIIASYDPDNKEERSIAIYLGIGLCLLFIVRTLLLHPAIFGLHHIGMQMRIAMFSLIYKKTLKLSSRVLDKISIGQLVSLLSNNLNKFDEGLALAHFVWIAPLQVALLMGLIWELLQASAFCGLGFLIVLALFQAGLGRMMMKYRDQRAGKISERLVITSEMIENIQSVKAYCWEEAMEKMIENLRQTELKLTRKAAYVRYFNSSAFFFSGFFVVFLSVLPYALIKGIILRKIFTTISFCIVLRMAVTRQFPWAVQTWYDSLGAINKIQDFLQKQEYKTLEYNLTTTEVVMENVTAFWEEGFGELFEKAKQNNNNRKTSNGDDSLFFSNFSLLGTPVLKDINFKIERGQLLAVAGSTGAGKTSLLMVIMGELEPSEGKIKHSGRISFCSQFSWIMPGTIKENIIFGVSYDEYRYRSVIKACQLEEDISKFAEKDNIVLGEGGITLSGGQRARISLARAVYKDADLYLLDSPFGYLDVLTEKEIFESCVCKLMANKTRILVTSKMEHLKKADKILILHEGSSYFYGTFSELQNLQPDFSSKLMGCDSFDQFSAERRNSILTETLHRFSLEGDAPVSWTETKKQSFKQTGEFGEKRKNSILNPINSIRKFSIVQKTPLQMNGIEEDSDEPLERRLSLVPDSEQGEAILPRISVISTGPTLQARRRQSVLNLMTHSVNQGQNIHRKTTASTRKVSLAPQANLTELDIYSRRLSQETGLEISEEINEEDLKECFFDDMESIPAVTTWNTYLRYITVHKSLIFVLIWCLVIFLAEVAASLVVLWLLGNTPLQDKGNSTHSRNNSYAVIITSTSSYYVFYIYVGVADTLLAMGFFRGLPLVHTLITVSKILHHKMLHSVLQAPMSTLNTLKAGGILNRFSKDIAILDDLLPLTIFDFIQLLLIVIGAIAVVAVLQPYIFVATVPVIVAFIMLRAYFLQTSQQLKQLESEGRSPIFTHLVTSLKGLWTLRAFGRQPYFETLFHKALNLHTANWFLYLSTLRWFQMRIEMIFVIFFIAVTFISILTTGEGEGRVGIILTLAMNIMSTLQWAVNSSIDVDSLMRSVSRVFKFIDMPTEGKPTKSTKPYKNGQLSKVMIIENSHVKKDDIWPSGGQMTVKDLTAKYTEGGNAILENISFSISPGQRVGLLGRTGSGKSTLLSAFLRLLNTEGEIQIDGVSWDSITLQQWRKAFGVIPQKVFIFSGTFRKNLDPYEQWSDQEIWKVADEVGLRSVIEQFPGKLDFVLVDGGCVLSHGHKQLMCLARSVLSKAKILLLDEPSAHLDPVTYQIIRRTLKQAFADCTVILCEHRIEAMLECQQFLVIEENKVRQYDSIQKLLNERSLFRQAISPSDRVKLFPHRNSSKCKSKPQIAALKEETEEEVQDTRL
Sequence of CFTR Cl^- channel (P26361 whole entry): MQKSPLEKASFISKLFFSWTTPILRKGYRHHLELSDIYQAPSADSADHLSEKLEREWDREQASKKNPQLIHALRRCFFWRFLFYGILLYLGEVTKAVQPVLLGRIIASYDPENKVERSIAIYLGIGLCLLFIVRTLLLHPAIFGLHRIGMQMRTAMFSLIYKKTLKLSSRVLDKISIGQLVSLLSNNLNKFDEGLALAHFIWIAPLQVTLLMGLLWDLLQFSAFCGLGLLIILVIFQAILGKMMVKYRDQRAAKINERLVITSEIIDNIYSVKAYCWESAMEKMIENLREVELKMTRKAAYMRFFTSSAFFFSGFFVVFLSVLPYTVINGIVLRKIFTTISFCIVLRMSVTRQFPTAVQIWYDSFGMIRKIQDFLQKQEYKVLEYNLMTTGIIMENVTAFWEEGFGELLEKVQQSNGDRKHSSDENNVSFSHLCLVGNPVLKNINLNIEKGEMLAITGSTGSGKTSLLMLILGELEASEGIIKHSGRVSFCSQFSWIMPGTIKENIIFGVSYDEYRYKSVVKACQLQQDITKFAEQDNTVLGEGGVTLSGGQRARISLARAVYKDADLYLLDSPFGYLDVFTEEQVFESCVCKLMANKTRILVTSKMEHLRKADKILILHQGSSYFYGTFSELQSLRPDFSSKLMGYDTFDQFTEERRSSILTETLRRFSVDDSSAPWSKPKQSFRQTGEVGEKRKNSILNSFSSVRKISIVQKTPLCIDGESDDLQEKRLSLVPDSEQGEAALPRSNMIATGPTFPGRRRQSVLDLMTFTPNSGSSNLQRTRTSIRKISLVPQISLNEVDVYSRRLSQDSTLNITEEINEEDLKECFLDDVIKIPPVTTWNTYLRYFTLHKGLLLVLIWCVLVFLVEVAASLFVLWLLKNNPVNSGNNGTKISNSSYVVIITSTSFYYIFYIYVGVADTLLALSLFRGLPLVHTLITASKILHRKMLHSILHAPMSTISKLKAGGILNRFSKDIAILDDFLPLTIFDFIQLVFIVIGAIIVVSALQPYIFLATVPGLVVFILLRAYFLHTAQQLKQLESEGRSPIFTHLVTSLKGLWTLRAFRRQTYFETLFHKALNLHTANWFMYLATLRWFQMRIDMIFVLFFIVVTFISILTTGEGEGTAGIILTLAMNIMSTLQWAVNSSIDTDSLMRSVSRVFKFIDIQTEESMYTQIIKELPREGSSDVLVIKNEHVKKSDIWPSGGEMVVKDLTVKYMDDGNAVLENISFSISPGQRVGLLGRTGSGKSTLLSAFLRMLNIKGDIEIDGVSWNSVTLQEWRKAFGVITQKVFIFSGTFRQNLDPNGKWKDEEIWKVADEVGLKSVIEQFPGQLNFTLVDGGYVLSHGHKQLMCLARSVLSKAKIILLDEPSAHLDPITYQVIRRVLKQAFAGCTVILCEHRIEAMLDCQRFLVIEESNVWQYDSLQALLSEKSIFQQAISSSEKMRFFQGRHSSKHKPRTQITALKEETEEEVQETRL

For biphenol A, the “induction of vacuolation / autophagy by the chemical alone” value (from here on “induction of vacuolation / autophagy”) with Sertoli 42GPA9 cells (24 h) is “induced vacuolation”. Also, in the data set with p42^ERK2 and p44^ERK1, the “ERK activation in Sertoli cells” value was “induced the activation of both p42^ERK2 and p44^ERK1”.
Take `CO/C1=C\C(C)=C\[C@@H](C)[C@@H](O)[C@@H](C)C/C(C)=C/C=C/[C@H](OC)[C@@H]([C@@H](C)[C@@H](O)[C@H](C)[C@@]2(O)C[C@@H](O)[C@H](C)[C@@H](C(C)C)O2)OC1=O` [BafA1, bafilomycin A1]: the “effect on Lindane-preformed vacuoles” value with Sertoli 42GPA9 cells was “collapsed Lindane-preformed vacuoles”. The “effect on Lindane-induced vacuolation” value in the data set with Sertoli 42GPA9 cells (24 h, PD98059 10 µM) was “prevented their formation”.
For the molecule `Cl.N` [NH4Cl], in the data set with Sertoli 42GPA9 cells (24 h), the “induction of vacuolation / autophagy” value was “did not alter cell morphology”. The “effect on toxicant-induced vacuole development” value with Sertoli 42GPA9 cells (NH4Cl 5 mM added to medium) was “accelerated toxicant-induced vacuole development”.
As to `COc1ccc(Cl)cc1C(=O)NCCc1ccc(S(=O)(=O)NC(=O)NC2CCCCC2)cc1` [glibenclamide], the “sensitivity of CFTR Cl^- channels to blocker” value on CFTR Cl^- channels is recorded as “sensitive”.
In the case of `O=S(=O)(NCCNCC=Cc1ccc(Br)cc1)c1cccc2cnccc12` [H89], the “effect on Lindane-induced CREB phosphorylation” value in the data set on PKA is recorded as “failed to counteract Lindane-induced CREB phosphorylation”.
As to `Clc1ccc(C(c2ccc(Cl)cc2)C(Cl)(Cl)Cl)cc1` [DDT], the “Sertoli cell vacuolation in vivo” value in the data set on Sertoli cell is “reported to promote Sertoli cell vacuolation”. Besides, the “induction of vacuolation / autophagy” value in the data set on Sertoli 42GPA9 cells (24 h) is “induced vacuolation”. The “ERK activation in Sertoli cells” value in the data set on p42^ERK2 and p44^ERK1 was “induced the activation of both p42^ERK2 and p44^ERK1”.
As to `Cn1cnc(N)c2ncnc1-2` [3 MA, 3-Methyladenine], the “effect on starvation-induced death of CFTR^-/- cells” value with CFTR^-/- cells was “arrested starvation-induced cell death”. For the same molecule, the “effect on Lindane-induced vacuolation” value in the data set on Sertoli 42GPA9 cells (24 h, PD98059 10 µM) is “dramatically reduced”.
On to `COc1cccc(-c2cc(=O)c3ccccc3o2)c1N` [PD98059], for which the “outcome of CFTR^+/+ cells under nutrient deprivation in the presence of inhibitor” value with CFTR^+/+ cells is “cell death”. The “effect on Lindane-induced CFTR Cl- conductance” value at CFTR Cl^- channel (PD98059 10 µM + Lindane) is recorded as “dramatically reduced”. Besides, on CFTR Cl^- channel (PD98059 alone), the “whole-cell I-V relationship with inhibitor alone” value is recorded as “identical to control I-V”. Further, the “ultrastructure in the presence of inhibitor plus Lindane” value in the data set on Sertoli 42GPA9 cells (PD98059 10 µM + Lindane, electron microscopy) is given as “dramatic accumulation of lamellar structures”. Also, the “effect on chloroquine-induced vacuolation” value with Sertoli 42GPA9 cells (chloroquine 500 µM, 24 h, PD98059 10 µM) is on record as “did not affect chloroquine-induced vacuolation”. Besides, the “effect on Lindane-induced vacuolation” value in the data set on Sertoli 42GPA9 cells (24 h, PD98059 10 µM) is reported as “abrogated Lindane-induced vacuolation”. Also, the “effect on Lindane-induced ERK activation” value in the data set on p42^ERK2 and p44^ERK1 is recorded as “drastically reduced the ability of Lindane to activate ERK”.
On to `O=C(O)c1cc([N+](=O)[O-])ccc1NCCCc1ccccc1` [NPPB, 5-nitro-2-(3-phenylpropylamino) benzoic acid], for which the “outcome of CFTR^+/+ cells under nutrient deprivation in the presence of inhibitor” value in the data set on CFTR^+/+ cells is on record as “cell death”. Further, the “effect on Lindane-preformed vacuoles” value with Sertoli 42GPA9 cells is recorded as “collapsed Lindane-preformed vacuoles”. Also, the “effect on Lindane-induced vacuolation” value in the data set with Sertoli 42GPA9 cells (24 h, PD98059 10 µM) is “abrogated Lindane-induced vacuolation”. In addition, the “effect on Lindane-induced ERK activation” value with p42^ERK2 and p44^ERK1 is recorded as “still stimulated”. The “sensitivity of CFTR Cl^- channels to blocker” value on CFTR Cl^- channels was “sensitive”.
For the molecule `Oc1c(Cl)c(Cl)c(Cl)c(Cl)c1Cl` [Pentachlorophenol], the “Sertoli cell vacuolation in vivo” value in the data set with Sertoli cell was “does not”. For the same molecule, in the data set on p38, the p38 activation entry is “concomitantly activated p38”. Also, the “induction of vacuolation / autophagy” value in the data set with Sertoli 42GPA9 cells (24 h) is listed as “no vacuolation was observed”. Further, the “ERK activation in Sertoli cells” value in the data set on p42^ERK2 and p44^ERK1 is reported as “strong activator of ERK1/2”.
